Read-outs that look alike come from different tables or passages of the source.
Target: human TRPA1 channel (Homo sapiens (Human), UniProt O75762)
Experiment: hTRPA1 CHO Ca2+ FLIPR Tetra assay, block of cinnamaldehyde induced calcium influx
Assay type: cell-based
Settings: for IC50: CHO cells expressing TRPA1, Hill coefficient fixed to 1.5; for TRPA1 IC50 compared with 3-azabicyclo[3.1.0]hexene linker and cyclobutylene linker analogues: bicyclo[3.1.0]hexene linker compounds versus same-substituent analogues (compounds 16, 191; 26, 1)
Procedure, shortened: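 IC50 values come from fixed-Hill fits of inhibition of cinnamaldehyde-induced (about EC50 level) calcium influx measured by FLIPR Tetra. Before agonist, TRPA1-expressing CHO cells loaded with calcium indicator were exposed to compound for 10 or 90 min at room temperature in HEPES-buffered HBSS, pH 7.4, with 0.02% BSA.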

[1] = read-out: hTRPA1 IC50 (10 min), compounds incubated 10 minutes at room temperature before cinnamaldehyde agonist
[2] = read-out: hTRPA1 IC50 (90 min), compounds incubated 90 minutes at room temperature before cinnamaldehyde agonist

Chain of human TRPA1 channel (O75762 whole entry): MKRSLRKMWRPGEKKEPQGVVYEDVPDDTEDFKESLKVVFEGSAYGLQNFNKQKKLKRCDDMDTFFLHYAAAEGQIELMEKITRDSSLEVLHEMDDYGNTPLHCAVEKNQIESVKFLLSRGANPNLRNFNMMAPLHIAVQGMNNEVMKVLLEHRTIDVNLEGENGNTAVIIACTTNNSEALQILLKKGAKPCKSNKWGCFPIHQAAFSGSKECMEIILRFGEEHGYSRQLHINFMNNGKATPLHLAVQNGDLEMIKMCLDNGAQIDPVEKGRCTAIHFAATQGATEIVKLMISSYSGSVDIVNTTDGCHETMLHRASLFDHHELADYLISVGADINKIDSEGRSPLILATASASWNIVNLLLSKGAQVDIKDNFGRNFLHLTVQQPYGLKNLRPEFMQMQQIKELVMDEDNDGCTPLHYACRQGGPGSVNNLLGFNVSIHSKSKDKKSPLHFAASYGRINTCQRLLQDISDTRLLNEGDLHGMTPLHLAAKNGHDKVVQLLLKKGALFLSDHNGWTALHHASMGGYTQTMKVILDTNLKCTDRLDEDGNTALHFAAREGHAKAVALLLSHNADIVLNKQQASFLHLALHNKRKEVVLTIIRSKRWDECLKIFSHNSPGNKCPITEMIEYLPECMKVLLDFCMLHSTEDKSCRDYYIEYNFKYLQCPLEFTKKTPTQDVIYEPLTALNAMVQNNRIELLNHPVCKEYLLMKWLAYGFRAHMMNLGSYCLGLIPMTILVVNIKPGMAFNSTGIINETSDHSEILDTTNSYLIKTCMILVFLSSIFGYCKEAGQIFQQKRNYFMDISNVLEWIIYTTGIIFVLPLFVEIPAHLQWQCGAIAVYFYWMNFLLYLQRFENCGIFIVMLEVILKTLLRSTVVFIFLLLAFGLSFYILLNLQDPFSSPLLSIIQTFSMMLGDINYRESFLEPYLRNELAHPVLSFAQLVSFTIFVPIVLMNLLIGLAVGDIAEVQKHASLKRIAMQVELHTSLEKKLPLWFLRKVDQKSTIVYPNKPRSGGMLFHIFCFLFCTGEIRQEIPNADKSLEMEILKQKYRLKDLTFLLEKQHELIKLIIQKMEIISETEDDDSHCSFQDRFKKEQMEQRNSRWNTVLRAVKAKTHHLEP

SMILES | IC50 [1] [nM] | IC50 [2] [nM] | other results
Cn1cnc2ncn(Cc3nc([C@H]4[C@@H]5CN(c6ccc7sncc7c6)C[C@@H]54)no3)c(=O)c21 [Example Compound 237, 1-((3-((1R,5S,6r)-3-(benzo[d]isothiazol-5-yl)-3-azabicyclo[3.1.0]hexan-6-yl)-1,2,4-oxadiazol-5-yl)methyl)-7-methyl-1,7-dihydro-6H-purin-6-one] | 18.2 | 2.1 | 
Cn1cnc2ncn(Cc3nc([C@H]4C[C@H](c5cccc(F)c5)C4)no3)c(=O)c21 [Example Compound 191, 1-((3-((1r,3r)-3-(3-fluorophenyl)cyclobutyl)-1,2,4-oxadiazol-5-yl)methyl)-7-methyl-1,7-dihydro-6H-purin-6-one] | 83 |  | 
Cn1cnc2ncn(Cc3nc([C@H]4[C@@H]5CN(c6ccnc(F)c6)C[C@@H]54)no3)c(=O)c21 [Example Compound 175, 1-((3-((1R,5S,6r)-3-(2-fluoropyridin-4-yl)-3-azabicyclo[3.1.0]hexan-6-yl)-1,2,4-oxadiazol-5-yl)methyl)-7-methyl-1,7-dihydro-6H-purin-6-one] | 420 | 73 | 
Cn1cnc2ncn(Cc3nc([C@@H]4[C@H]5C=C(c6cccc(F)c6F)C[C@H]54)no3)c(=O)c21 [Example Compound 254, 7-methyl-1-[[3-[(1R,5R,6S)-3-(2,3-difluorophenyl)-6-bicyclo[3.1.0]hex-2-enyl]-1,2,4-oxadiazol-5-yl]methyl]purin-6-one] |  |  | IC50 (read-out: hTRPA1 IC50 (10 min), compounds incubated 10 minutes at room temperature before cinnamaldehyde agonist, listed as 254): 12.3 nM; IC50 (read-out: hTRPA1 IC50 (90 min), compounds incubated 90 minutes at room temperature before cinnamaldehyde agonist, listed as 254): 2.1 nM
O=c1c2cccnc2cnn1Cc1nc([C@H]2[C@@H]3CN(c4ccnc(F)c4)C[C@@H]32)no1 [Example Compound 152, 6-((3-((1R,5S,6r)-3-(2-fluoropyridin-4-yl)-3-azabicyclo[3.1.0]hexan-6-yl)-1,2,4-oxadiazol-5-yl)methyl)pyrido[2,3-d]pyridazin-5(6H)-one] | 58.7 | 41 | 
Cc1cc(C#N)nc2ncn(Cc3nc([C@H]4C[C@](F)(c5ccc(F)cc5)C4)no3)c(=O)c12 [Example Compound 166, 3-((3-((1s,3s)-3-fluoro-3-(4-fluorophenyl)cyclobutyl)-1,2,4-oxadiazol-5-yl)methyl)-5-methyl-4-oxo-3,4-dihydropyrido[2,3-d]pyrimidine-7-carbonitrile] | 37.6 |  | 
Cn1cnc2ncn(Cc3nc([C@H]4[C@@H]5CN(c6cccc(-c7cnco7)c6)C[C@@H]54)no3)c(=O)c21 [Example Compound 199, 7-methyl-1-((3-((1R,5S,6r)-3-(3-(oxazol-5-yl)phenyl)-3-azabicyclo[3.1.0]hexan-6-yl)-1,2,4-oxadiazol-5-yl)methyl)-1,7-dihydro-6H-purin-6-one] | 26.2 | 22 | 
Cn1cnc2ncn(Cc3nc([C@H]4[C@@H]5CN(c6ncccc6F)C[C@@H]54)no3)c(=O)c21 [Example Compound 132, 1-((3-((1R,5S,6r)-3-(3-fluoropyridin-2-yl)-3-azabicyclo[3.1.0]hexan-6-yl)-1,2,4-oxadiazol-5-yl)methyl)-7-methyl-1,7-dihydro-6H-purin-6-one] | 143 | 110 | 
Cn1c(=O)ccc2ncn(Cc3nc([C@@H]4[C@H]5C=C(c6ccccc6)C[C@H]54)no3)c(=O)c21 [Example Compound 265, 5-methyl-3-[[3-[(1R,5R,6S)-3-phenyl-6-bicyclo[3.1.0]hex-2-enyl]-1,2,4-oxadiazol-5-yl]methyl]pyrido[3,2-d]pyrimidine-3,6-dione] | 16.1 | 12 | 
Cn1cnc2ncn(Cc3nc([C@H]4[C@@H]5C=C(c6ccc(F)cn6)C[C@@H]54)no3)c(=O)c21 [Example Compound 111, 1-((3-((1S,5S,6R)-3-(5-fluoropyridin-2-yl)bicyclo[3.1.0]hex-2-en-6-yl)-1,2,4-oxadiazol-5-yl)methyl)-7-methyl-1,7-dihydro-6H-purin-6-one] | 116 | 78 | 
Cc1ccnc2ncn(Cc3nc([C@H]4C[C@](F)(c5ccc(Cl)cc5)C4)no3)c(=O)c12 [Example Compound 38, 3-((3-((1s,3s)-3-(4-chlorophenyl)-3-fluorocyclobutyl)-1,2,4-oxadiazol-5-yl)methyl)-5-methylpyrido[2,3-d]pyrimidin-4(3H)-one] | 28.9 |  | 
Cc1ccnc2ncn(Cc3nc([C@@H]4[C@H]5Cc6ccccc6[C@H]54)no3)c(=O)c12 (stereo in doubt) [Example Compound 14, 5-methyl-3-[[3-[rac-(1S,1aS,6aR)-1,1a,6,6a-tetrahydrocyclopropa[a]inden-1-yl]-1,2,4-oxadiazol-5-yl]methyl]pyrido[2,3-d]pyrimidin-4-one] |  |  | IC50 (compounds incubated 10 minutes at room temperature before cinnamaldehyde agonist): 119 nM
Cn1c(NC2COC2)nc2ncn(Cc3nc([C@H]4[C@@H]5C=C(c6ccccc6)C[C@@H]54)no3)c(=O)c21 [Example Compound 243, 7-methyl-8-(oxetan-3-ylamino)-1-[[3-[(1S,5S,6R)-3-phenyl-6-bicyclo[3.1.0]hex-2-enyl]-1,2,4-oxadiazol-5-yl]methyl]purin-6-one] | 101 | 45 | 
O=c1c2cccnc2ncn1Cc1nc([C@H]2[C@@H]3C=C(c4cccc(Cl)c4)C[C@@H]32)no1 [Example Compound 180, 3-((3-((1S,5S,6R)-3-(3-chlorophenyl)bicyclo[3.1.0]hex-2-en-6-yl)-1,2,4-oxadiazol-5-yl)methyl)pyrido[2,3-d]pyrimidin-4(3H)-one] | 23.3 | 24 | 
Cn1cnc2ncn(Cc3nc([C@H]4[C@@H]5CN(c6cc(Cl)ccn6)C[C@@H]54)no3)c(=O)c21 [Example Compound 212, 1-((3-((1R,5S,6r)-3-(4-chloropyridin-2-yl)-3-azabicyclo[3.1.0]hexan-6-yl)-1,2,4-oxadiazol-5-yl)methyl)-7-methyl-1,7-dihydro-6H-purin-6-one] | 84.7 | 25 | 
Cn1cnc2c(C#N)nn(Cc3nc([C@H]4[C@@H]5CN(c6ccccc6)C[C@@H]54)no3)c2c1=O [Example Compound 22, 6-methyl-7-oxo-1-[[3-[(1R,5S,6s)-3-phenyl-3-azabicyclo[3.1.0]hexan-6-yl]-1,2,4-oxadiazol-5-yl]methyl]pyrazolo[4,3-d]pyrimidine-3-carbonitrile] | 352 |  | 
O=c1c2ccncc2ncn1Cc1nc([C@H]2[C@@H]3CN(c4ccccc4)C[C@@H]32)no1 [Example Compound 195, 3-((3-((1R,5S,6r)-3-phenyl-3-azabicyclo[3.1.0]hexan-6-yl)-1,2,4-oxadiazol-5-yl)methyl)pyrido[3,4-d]pyrimidin-4(3H)-one] | 99.4 | 110 | 
Cn1cnc2ncn(Cc3nc([C@@H]4[C@@H]5CN(c6cccc(Cl)c6)C[C@@H]54)no3)c(=O)c21 [Example Compound 24, 7-methyl-1-[[3-[(1R,5S,6 r)-3-(3-chlorophenyl)-3-azabicyclo[3.1.0]hexan-6-yl]-1,2,4-oxadiazol-5-yl]methyl]purin-6-one] | 8.38 |  | 

Second part, led by results:

IC50 [1] [nM] | IC50 [2] [nM] | SMILES | other results
91.5 | 31 | Cn1cnc2ncn(Cc3nc([C@H]4[C@@H]5C=C(c6cc(Cl)ccn6)C[C@@H]54)no3)c(=O)c21 [Example Compound 160, 1-((3-((1S,5S,6R)-3-(4-chloropyridin-2-yl)bicyclo[3.1.0]hex-2-en-6-yl)-1,2,4-oxadiazol-5-yl)methyl)-7-methyl-1,7-dihydro-6H-purin-6-one] | 
67.9 | 35 | Cn1cnc2ncn(Cc3nc([C@@H]4[C@H]5C=C(c6ccc(C(F)F)cc6)C[C@H]54)no3)c(=O)c21 [Example Compound 281, 7-methyl-1-[[3-[(1R,5R,6S)-3-[4-(difluoromethyl)phenyl]-6-bicyclo[3.1.0]hex-2-enyl]-1,2,4-oxadiazol-5-yl]methyl]purin-6-one] | 
21.6 | 9.9 | Cn1cnc2ncn(Cc3nc([C@@H]4[C@H]5C=C(c6ccccc6)C[C@H]54)no3)c(=O)c21 [Example Compound 226, 7-methyl-1-((3-((1R,5R,6S)-3-phenylbicyclo[3.1.0]hex-2-en-6-yl)-1,2,4-oxadiazol-5-yl)methyl)-1,7-dihydro-6H-purin-6-one] | TRPA1 IC50 compared with 3-azabicyclo[3.1.0]hexene linker and cyclobutylene linker analogues: improved TRPA1 IC50 values
9.78 | 5.1 | Cn1cnc2ncn(Cc3nc([C@H]4[C@@H]5C=C(c6ccc(Cl)cc6)C[C@@H]54)no3)c(=O)c21 [Example Compound 141, 1-((3-((1S,5S,6R)-3-(4-chlorophenyl)bicyclo[3.1.0]hex-2-en-6-yl)-1,2,4-oxadiazol-5-yl)methyl)-7-methyl-1,7-dihydro-6H-purin-6-one] | 
13.8 | 1.7 | Cn1cnc2ncn(Cc3nc([C@H]4[C@@H]5C=C(c6ccccc6)C[C@@H]54)no3)c(=O)c21 [Example Compound 225, 7-methyl-1-((3-((1S,5S,6R)-3-phenylbicyclo[3.1.0]hex-2-en-6-yl)-1,2,4-oxadiazol-5-yl)methyl)-1,7-dihydro-6H-purin-6-one] | TRPA1 IC50 compared with 3-azabicyclo[3.1.0]hexene linker and cyclobutylene linker analogues: improved TRPA1 IC50 values
19.6 | 5.3 | Cn1cnc2ncn(Cc3nc([C@@H]4[C@H]5C=C(c6ccc(C#N)c(F)c6)C[C@H]54)no3)c(=O)c21 [Example Compound 283, 2-fluoro-4-[(1R,5R,6S)-6-[5-[(7-methyl-6-oxo-purin-1-yl)methyl]-1,2,4-oxadiazol-3-yl]-3-bicyclo[3.1.0]hex-2-enyl]benzonitrile] | 

Reference: US10711004B2 (Genentech, Inc., priority 2018, dated 2020)
